Measurements reported in ChEMBL document CHEMBL3763023, “Amido/ureidosubstituted benzenesulfonamides-isatin conjugates as low nanomolar/subnanomolar inhibitors of the tumor-associated carbonic anhydrase isoform XII” (Eur J Med Chem, 2016).

target: Carbonic anhydrase 2 (Homo sapiens, UniProt P00918); assay: Inhibition of recombinant human carbonic anhydrase 2 incubated for 15 mins prior to testing by stopped flow carbon dioxide hydrase assay

Row | Ki | SMILES
1 | > 10000 nM | NS(=O)(=O)c1ccc(NC(=O)Nc2ccc(/N=C3\C(=O)Nc4ccc(Br)cc43)cc2)cc1

target: Carbonic anhydrase 9 (Homo sapiens, UniProt Q16790); assay: Inhibition of recombinant human carbonic anhydrase 9 incubated for 15 mins prior to testing by stopped flow carbon dioxide hydrase assay

Row | SMILES | Ki
2 | NS(=O)(=O)c1ccc(NC(=O)c2ccc(/N=C3\C(=O)Nc4ccccc43)cc2)cc1 | 240 nM
3 | NS(=O)(=O)c1ccc(NC(=O)Nc2ccc(/N=C3\C(=O)Nc4ccc(Cl)cc43)cc2)cc1 | 239 nM
4 | NS(=O)(=O)c1ccc(NC(=O)Nc2ccc(/N=C3\C(=O)Nc4ccc(Br)cc43)cc2)cc1 | 192 nM
5 | Nc1ccc(C(=O)Nc2ccc(S(N)(=O)=O)cc2)cc1 | 159 nM
6 | NS(=O)(=O)c1ccc(NC(=O)Nc2ccc(/N=C3\C(=O)Nc4ccccc43)cc2)cc1 | 217 nM

More lines, now with the values ahead:

Row | Ki | SMILES
7 | 208 nM | NS(=O)(=O)c1ccc(NC(=O)c2ccc(/N=C3\C(=O)Nc4ccc(Br)cc43)cc2)cc1
8 | 235 nM | NS(=O)(=O)c1ccc(NC(=O)Nc2ccc(/N=C3\C(=O)Nc4ccc(F)cc43)cc2)cc1
9 | 14.8 nM | NS(=O)(=O)c1ccc(NC(=O)Nc2ccc(/N=C3\C(=O)Nc4ccc([N+](=O)[O-])cc43)cc2)cc1
10 | 194 nM | NS(=O)(=O)c1ccc(NC(=O)c2ccc(/N=C3\C(=O)Nc4ccc(Cl)cc43)cc2)cc1
11 | 5 nM | NS(=O)(=O)c1ccc(/N=C2\C(=O)Nc3ccc([N+](=O)[O-])cc32)cc1
12 | 16.7 nM | Cc1ccc2c(c1)/C(=N/c1ccc(NC(=O)Nc3ccc(S(N)(=O)=O)cc3)cc1)C(=O)N2
